According to patent publication US12378328B2, “Biohybrid peptidoglycan oligomers” (Nanyang Technological University, priority 2019, dated 2025):

Experiments:
E. faecalis OG1RF = assay: TIRF microscopy of wild type and L-form bacteria; type: cell-based; conditions: 30 min, 37° C.; for fluorescence localisation, L-form cells: L-form E. faecalis OG1RF
Text: L-form bacteria and fluorescence microscopy were deployed to further study the interaction between PGOs and bacterial cell walls. L-form bacteria are deficient in cell wall components (referring to substrates forming the cell wall) or cell wall fragments (referring to the residues formed after cell autolysis) on their surface. BOCILLIN™ FL (Boc-FL), a fluorescent penicillin-derivative, was used to compare the localisation of penicillin-derivatives to that of PGOs.
The localisation of PGOs-rhodamine was also compared to the membrane dye Polymyxin B-BODIPY FL (Polymyxin B). […] In comparison, the PGOs localised in discrete punctae on the L-form cell surfaces. […] Thus, it is concluded that PGOs' localisation patterns within bacterial cell walls strongly resemble penicillin-derivatives (FIG. 9, top row).
L-forms were generated using DM3 agar by modified methods from reported protocol (Molec. Gen. Genet., 1979, 168, 111-115). DM3 medium consists of 1.2 wt % agar, 0.5 wt % Tryptone, 0.5 wt % yeast extract, 1 M Succinate (pH 7.3), 3.5 wt % K2HPO4 and 1.5 wt % KH2PO4, 20 wt % Glucose, 1 M MgCl2 and 2 wt % BSA, with the balance being water. Parental strain E. faecalis OG1RF was grown overnight at 37° C. in DM3 broth. 100 μL of an overnight culture was directly plated on DM3 agar plates supplemented with 200 μg/ml penicillin G. The plates were incubated at 37° C. Small fried egg-like shaped colonies appeared after 5 days. The colonies were restreaked on DM3 agar with 200 μg/ml penicillin G for a few times to get pure colonies, and serial passaging (ten times) of pure colonies in DM3 agar with decreasing penicillin G concentrations to generate stable L-forms. The stable L-forms were stored at −80° C. in 20% glycerol.
Fluorescence microscopy was performed on Nikon TIRF microscope (Nikon instruments, NY, USA). BODIPY FL and sulforhodamine B were excited at 488 and 560 nm and emitted at 512 and 580 nm respectively. […]

[1] = test system: S. aureus and E. faecalis; assay: STED super-resolution microscopy of cell walls that incorporated PGOs; type: cell-based
Description: To prepare samples for super resolution STED microscopy, overnight broth cultures were grown in 5 ml of fresh culture broth (1:100 dilution) to prepare logarithmic phase cultures after incubation at 37° C. for 4 hours in a shaking incubator (225 rpm). Then, bacteria cells were pelleted by centrifugation at 1,500×g for 5 min, suspended in culture media (MHB and BHI) at a concentration of 10^8 CFU ml^−1 and incubated for 1 h in the dark in the presence of 100 μg/ml of rhodamine-labeled derivative of 1 at 37° C. with agitation (225 rpm). […] Cells were fixed for 1 h at 37° C. in a shaking incubator (225 rpm), washed three times in PBS and applied to a sterile glass bottom collagen coated dish (MatTek Corporation).
STED super resolution microscopy was performed on a Leica TCS SP8 STED-3× microscope (Leica Microsystems, Wetzlar, Germany) at SingHealth Advanced Biomaging Core. 479 nm and 556 nm lasers were used for fluorescence excitation, while 660 nm STED laser was used for depletion. In order to achieve maximum lateral resolution, all images were acquired in 2D STED mode. Further image processing required deconvolution, which was done using Huygens Professional software (Scientific Volume Imaging, Hilversum, Netherlands).
To characterize the bacterial PG cell walls that incorporated PGOs, the microscope images obtained from Example 5 were further analysed.

| Molecule | fluorescence localisation, L-form cells (E. faecalis OG1RF) | fluorescence localisation, wild type cells (E. faecalis OG1RF; wild type E. faecalis OG1RF) | localisation of signal on the bacterial cell [1] |
| --- | --- | --- | --- |
| Cc1cc(C)n2c1C=C1C=CC(CCC(=O)Nc3ccc(OCC(=O)N[C@@H]4C(=O)N5[C@@H]4SC(C)(C)[C@@H]5C(=O)[O-])cc3)=[N+]1[B-]2(F)F.[Na+] [Boc-FL] | only a few distinct fluorescent punctae | intense fluorescence at the septum region and also the adjacent cell surface |  |
| CCCCN(CCCC)c1ccc(/C=C/c2cc[n+](CCC[N+](C)(C)CCCN)cc2)cc1.Cl.[Cl-].[Cl-] [FM 1-43fx] |  |  | adsorbed directly onto the bacterial cell surface |
| Polymyxin B | Strong uniform membranous staining |  |  |
